Converted amounts (≈) assume the structure as drawn. Values belong to the molecule of their own block, whether it stands above or below them.
Legend:
[1] = system: Entamoeba histolytica; experiment: Antiamoebic activity against Entamoeba histolytica HK9 ATCC 30015 incubated for 72 hrs by trypan blue staining based assay; assay type: functional, organism-based; details: ATCC 30015, 72 h
[2] = system: Giardia intestinalis; experiment: Antigiardial activity against Giardia intestinalis WB ATCC 30957 incubated for 72 hrs by trypan blue staining based assay; assay type: functional, organism-based; details: Giardia duodenalis, WB ATCC 30957, 72 h
[3] = system: Entamoeba histolytica; experiment: Antiamoebic activity against Entamoeba histolytica HK9 ATCC 30015 by trypan blue staining based assay; assay type: functional, organism-based
[4] = system: Giardia intestinalis; experiment: Antigiardial activity against Giardia intestinalis WB ATCC 30957 by trypan blue staining based assay; assay type: functional, organism-based; details: Giardia duodenalis
[5] = system: Staphylococcus aureus; experiment: Antibacterial activity against Staphylococcus aureus ATCC 6538P incubated for 24 hrs by broth microdilution method; assay type: functional
[6] = system: Escherichia coli; experiment: Antibacterial activity against Escherichia coli ATCC 8739 incubated for 24 hrs by broth microdilution method; assay type: functional
[7] = system: Candida albicans; experiment: Antifungal activity against Candida albicans ATCC 10231 incubated for 24 hrs by broth microdilution method; assay type: functional
[8] = target: T1, Pancreatic alpha-amylase (Sus scrofa, UniProt P00690); experiment: Inhibition of porcine pancreatic alpha-amylase using 1% starch as substrate preincubated for 10 mins followed by substrate addition and measured after 10 mins by absorbance method
T1 sequence (P00690 whole entry): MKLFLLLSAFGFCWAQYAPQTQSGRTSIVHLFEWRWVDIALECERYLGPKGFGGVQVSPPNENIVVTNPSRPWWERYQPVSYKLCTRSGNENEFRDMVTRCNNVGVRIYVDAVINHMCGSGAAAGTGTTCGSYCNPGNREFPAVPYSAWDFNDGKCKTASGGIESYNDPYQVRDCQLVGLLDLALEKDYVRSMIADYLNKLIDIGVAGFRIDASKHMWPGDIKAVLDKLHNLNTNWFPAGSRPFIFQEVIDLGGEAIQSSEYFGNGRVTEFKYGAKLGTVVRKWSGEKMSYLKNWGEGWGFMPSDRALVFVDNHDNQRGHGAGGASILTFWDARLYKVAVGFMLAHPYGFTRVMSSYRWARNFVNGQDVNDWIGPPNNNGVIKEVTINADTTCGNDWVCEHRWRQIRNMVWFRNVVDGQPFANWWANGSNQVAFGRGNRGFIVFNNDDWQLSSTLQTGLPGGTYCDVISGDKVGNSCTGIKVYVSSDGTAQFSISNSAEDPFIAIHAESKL

[9] = system: Escherichia coli; experiment: Antibacterial activity against Escherichia coli ATCC 35218 incubated for 24 hrs by two fold serial dilution method; assay type: functional
[10] = Acute oral toxicity in mouse assessed as induction of mortality measured once daily for 14 days; details: in vivo, time 14 day
[11] = Acute oral toxicity in mouse assessed as behavioral changes measured once daily for 14 days; details: in vivo, time 14 day
[12] = Inhibition of Escherichia coli N-terminal His-tagged FabH expressed in Escherichia coli BL21(DE3) by liquid scintillation counting method
[13] = system: Pseudomonas aeruginosa; experiment: Antibacterial activity against Pseudomonas aeruginosa ATCC 13525 incubated for 24 hrs by two fold serial dilution method; assay type: functional
[14] = Acute oral toxicity in mouse assessed as signs of gross toxicity measured once daily for 14 days; details: in vivo, time 14 day
[15] = system: Bacillus spizizenii; experiment: Antibacterial activity against Bacillus subtilis ATCC 6633 incubated for 24 hrs by two fold serial dilution method; assay type: functional
[16] = system: Staphylococcus aureus; experiment: Antibacterial activity against Staphylococcus aureus ATCC 6538 incubated for 24 hrs by two fold serial dilution method; assay type: functional
[17] = target: Carbonic anhydrase 9 (Homo sapiens, UniProt Q16790); experiment: Inhibition of recombinant human carbonic anhydrase 9 preincubated with enzyme for 15 mins by phenol red dye based stopped flow CO2 hydration assay
[18] = target: Carbonic anhydrase 2 (Homo sapiens, UniProt P00918); experiment: Inhibition of recombinant human carbonic anhydrase 2 preincubated with enzyme for 15 mins by phenol red dye based stopped flow CO2 hydration assay
[19] = system: HEK293; experiment: Cytotoxicity against HEK293 cells after 24 hrs by MTT assay; assay type: cell-based; details: Homo sapiens, HEK293, 24 h
[20] = system: Escherichia coli; experiment: Antibacterial activity against Escherichia coli ATCC 35218 by MH media dilution method; assay type: functional
[21] = system: Staphylococcus aureus; experiment: Antibacterial activity against Staphylococcus aureus ATCC 6538 by MH media dilution method; assay type: functional
[22] = system: Bacillus spizizenii; experiment: Antibacterial activity against Bacillus subtilis ATCC 6633 by MH media dilution method; assay type: functional
[23] = system: Pseudomonas aeruginosa; experiment: Antibacterial activity against Pseudomonas aeruginosa ATCC 13525 by MH media dilution method; assay type: functional
[24] = system: Leishmania braziliensis; experiment: Antileishmanial activity against promastigote form of Leishmania braziliensis MHOM/BR/75/M2903 measured for 7 days by cell counting method; assay type: functional; details: MHOM/BR/75/M2903, 168 h, time 7 day
[25] = system: Leishmania mexicana; experiment: Antileishmanial activity against promastigote form of Leishmania mexicana MHOM/BZ/82/Bel21 measured for 7 days by cell counting method; assay type: functional; details: MHOM/BZ/82/Bel21, 168 h, time 7 day

- IC50 [8]: 380 nM
SMILES: Cc1cccc(COCCn2c([N+](=O)[O-])cnc2C)c1

- IC50 [8]: < 2980 nM
SMILES: Cc1ncc([N+](=O)[O-])n1CCOCc1ccc[nH]1

- IC50 [8]: < 2980 nM
SMILES: Cc1ccc(COCCn2c([N+](=O)[O-])cnc2C)cc1

- IC50 [8]: < 2980 nM
SMILES: Cc1ncc([N+](=O)[O-])n1CCOCc1ccccc1Cl

- IC50 [8]: < 2980 nM
SMILES: Cc1ncc([N+](=O)[O-])n1CCOCc1ccc(C#N)cc1

- IC50 [8]: < 2980 nM
SMILES: Cc1ncc([N+](=O)[O-])n1CCOCc1ccc(Cl)cc1

- IC50 [8]: < 2980 nM
SMILES: Cc1ncc([N+](=O)[O-])n1CCOCc1ccncc1

- IC50 [8]: < 2980 nM
SMILES: Cc1ncc([N+](=O)[O-])n1CCOCc1cccc([N+](=O)[O-])c1

- IC50 [8]: < 2980 nM
SMILES: Cc1ncc([N+](=O)[O-])n1CCOCc1cccc(Cl)c1

Second part, the molecule before the results:

SMILES: Clc1ccc2c(N3CCNCC3)ccnc2c1
- IC50 [1]: 94.3 µM
- IC50 [2]: 88.4 µM

SMILES: CCOC(=O)C(CCCCNC(=O)C(C)n1c([N+](=O)[O-])cnc1C)NC(=O)Cn1c([N+](=O)[O-])cnc1C (stereo unspecified)
- IC50 [3]: 3950 nM
- IC50 [4]: 3840 nM

SMILES: Cc1ncc([N+](=O)[O-])n1CC/N=C/c1ccccc1O
- MIC [5]: 2000 µM (≈ 549 µg/mL)
- MIC [6]: 2240 µM (≈ 614 µg/mL)
- MIC [7]: 170 µM (≈ 46.6 µg/mL)

SMILES: Cc1ccnc(NS(=O)(=O)c2ccc(/N=C/c3ccc(C(=O)OCCn4c([N+](=O)[O-])cnc4C)cc3)cc2)n1
- MIC [9]: 3.13 µg/mL (≈ 5.7 µM)
- LD50 at 336 h [10]: > 5000 mg/kg
- LD50 at 336 h [11]: > 5000 mg/kg
- IC50 [12]: 5.59 µM
- MIC [13]: 12.5 µg/mL (≈ 22.7 µM)
- LD50 at 336 h [14]: > 5000 mg/kg
- MIC [15]: 6.25 µg/mL (≈ 11.4 µM)
- MIC [16]: 12.5 µg/mL (≈ 22.7 µM)

SMILES: CCOC(=O)[C@H](CC(=O)O)NC(=O)Cn1c([N+](=O)[O-])cnc1C
- IC50 [3]: 2210 nM
- IC50 [4]: 2260 nM

SMILES: Cc1ncc([N+](=O)[O-])n1CCOc1ccc(/C=N\c2ccc(S(=O)(=O)NC(=N)N)cc2)cc1
- IC50 [17]: 135 nM
- IC50 [18]: 70 nM

SMILES: Cc1ncc([N+](=O)[O-])n1Cc1cn(CCCCCN2C(=O)C(=O)c3cc(Cl)ccc32)nn1
- IC50 [19]: 12.1 µM

SMILES: CC1(C)S[C@@H]2[C@H](NC(=O)[C@H](N)c3ccccc3)C(=O)N2[C@H]1C(=O)O [AMPICILLIN]
- MIC [5]: 0.036 µM (≈ 0.0126 µg/mL)
- MIC [6]: 2.3 µM (≈ 0.804 µg/mL)

SMILES: Cc1cc(NNS(=O)(=O)c2ccc(/N=C\c3ccc(OCCn4c([N+](=O)[O-])cnc4C)cc3)cc2)no1
- IC50 [17]: 112 nM
- IC50 [18]: 33 nM

SMILES: CC1(C)S[C@@H]2[C@H](NC(=O)Cc3ccccc3)C(=O)N2[C@H]1C(=O)O [PENICILLIN G]
- MIC [9]: 3.13 µg/mL (≈ 9.36 µM)
- MIC [20]: 7.82 µg/mL (≈ 23.4 µM)
- MIC [21]: 1.96 µg/mL (≈ 5.86 µM)
- MIC [13]: 6.25 µg/mL (≈ 18.7 µM)
- MIC [15]: 1.56 µg/mL (≈ 4.67 µM)
- MIC [22]: 0.98 µg/mL (≈ 2.93 µM)
- MIC [16]: 6.25 µg/mL (≈ 18.7 µM)
- MIC [23]: 7.82 µg/mL (≈ 23.4 µM)

SMILES: Cn1c(-c2ccncc2)n[nH]c1=S
- IC50 [3]: 1370 nM
- IC50 [4]: 1560 nM

SMILES: Cc1ncc([N+](=O)[O-])n1CCNC(=O)/C=C/c1ccc([N+](=O)[O-])o1
- IC50 [1]: 5.32 µM

SMILES: Cc1ncc([N+](=O)[O-])n1CCSCOC(=O)c1ccc(O)c(O)c1
- LC50 [24]: 13 µM
- LC50 [25]: 11 µM

SMILES: Cc1ncc([N+](=O)[O-])n1CCOc1ccc(/C=N\c2ccc(S(=O)(=O)Nc3nccs3)cc2)cc1
- IC50 [17]: 93 nM
- IC50 [18]: 16 nM

SMILES: Cc1cc(COCCn2c([N+](=O)[O-])cnc2C)ccc1[N+](=O)[O-]
- IC50 [8]: < 2980 nM

SMILES: Cc1ncc([N+](=O)[O-])n1CCSCO
- LC50 [24]: 950 µM
- LC50 [25]: 2250 µM

SMILES: COc1ccc(/C=N/CCn2c([N+](=O)[O-])cnc2C)cc1
- MIC [7]: 170 µM (≈ 49 µg/mL)

SMILES: Cc1ncc([N+](=O)[O-])n1CCSCOC(=O)c1cc(O)c(O)c(O)c1
- LC50 [24]: 4 µM
- LC50 [25]: 1 µM

SMILES: O=C(O)/C=C/c1ccc([N+](=O)[O-])o1
- IC50 [1]: 55.7 µM
- IC50 [2]: 67.5 µM

Reference: ChEMBL document CHEMBL4813920, “Metronidazole-conjugates: A comprehensive review of recent developments towards synthesis and medicinal perspective” (Eur J Med Chem, 2021)
